Test results: article PMC7581722, “Tolerogenic Immunomodulation by PEGylated Antigenic Peptides” (Frontiers in Immunology, 2020)

Columns and labels:
OVA-TCR+ CD4+ T cells [1] = assay: Analysis of bioavailability: vaccination 3 days before transfer of CFSE-labeled OVA-specific CD4+ cells; set-up: species or system BALB/c mice; conditions: mouse, in vivo, iv
Protocol: To test for the presence of bioactive material in the organism after an extended period of time (bioavailability), recipients were treated with pOVA or equimolar amounts of PEGylated peptides 3 days before transfer of CFSE-labeled OVA-specific CD4^+ cells. Proliferation was assessed 6 days after CD4^+ T cell transfer by dilution of CFSE intensity using flow cytometry.
We next addressed the question whether PEGylation leads to an extended half-life (bioavailability) of the antigenic peptide in the organism and whether size and structure of the PEG molecule matter. For this, we tested the degree of proliferation after vaccination with a single i.v. injection of pOVA or conjugates at 3 days prior to transfer of OVA-specific T cells ( Figure 3A ). Six days after cell transfer, splenocytes were isolated and proliferation of OVA-TCR^+ CD4^+ T cells was analyzed according to CFSE content.
Figure 3 Conjugation of pOVA to the macromolecular carrier PEG extends peptide bioavailability. (A) Set-up for analysis of the bioavailability. (B) OVA-specific CD4^+ CFSE-labeled T cells were transferred into BALB/c mice three days after i.v. peptide vaccination with unconjugated pOVA or equimolar amounts of pOVA-PEG conjugates. After 6 days proliferation was assessed by flow cytometry. Cells from spleen and pLN were gated on OVA-TCR^+ CD4^+ T cells. […]

[2] = test system: Foxp3+ regulatory T cells among OVA-TCR+ CD4+ T cells; assay: Adoptive transfer: Foxp3 expression of OVA-TCR+ CD4+ splenocytes after vaccination; format: in vivo, BALB/c mice
Protocol: Cell fixation, permeabilization, and intracellular Foxp3 staining were performed using the eFluor450 anti-mouse Foxp3 (eBioscience) staining set according to manufacturer’s instructions.
On day 0, 5 × 10^6 CFSE-labeled CD4^+ cells from DO11.10 were adoptively transferred intravenously (i.v.) into syngeneic BALB/c mice. After 24 hours, mice were treated by a single i.v. injection of PBS (control), unconjugated pOVA or equimolar amounts of PEG-conjugated pOVA as indicated. […] On day 7, splenocytes were isolated, and OVA-TCR^+ CD4^+ T cells were identified by an anti-KJ1.26 antibody, recognizing the OVA-specific TCR on transferred DO11.10 cells.
To assess the immunomodulatory effect of administration of different types of PEGylated pOVA, we analyzed the expression of Foxp3, the master transcription factor of Tregs and the cytokine profile of antigen-specific T cells upon vaccination.
CFSE-labeled CD4^+ cells from DO11.10 mice were transferred into BALB/c mice. After 24 h, mice received either PBS (control), indicated doses of pOVA or equimolar amounts of PEGylated peptides. After 6 days, Foxp3 expression was assessed using flow cytometry. Spleen cells were gated on OVA-TCR^+ CD4^+ T cells. (A) Representative FACS dot plots of Foxp3 expression following tolerization with pOVA or pOVA-PEG conjugates at a dose of 5 µg (based on peptide amount). (B) Dose response curve in vivo. […]

[3] = test system: TNF-producing OVA-TCR+ CD4+ T cells; format: in vivo
[4] = test system: Foxp3+ Tregs among OVA-TCR+ CD4+ cells; assay: Adoptive transfer of Treg-depleted CD4+ cells: de novo induction of Foxp3+ Tregs; format: in vivo, BALB/c mice; conditions: 5 µg i.v. or equimolar, 6 days; spleen, pLN, mLN, livLN; n = 3-7
Protocol: To investigate whether Tregs are expanded or induced de novo, purified CFSE-labeled CD4^+ CD25^- CD103^- T cells from DO11.10 mice were adoptively transferred i.v. into BALB/c mice. After 24 h, mice were treated by a single i.v. injection of PBS (control), unconjugated pOVA at a dose of 5 µg per mouse or equimolar amounts of PEGylated pOVA. On day 7, different lymphatic organs were isolated and OVA-specific CD4^+ T cells were identified by an anti-KJ1.26 antibody.
To investigate whether the increase of Treg frequency following pOVA-PEG20 treatment is due to de novo induction or to expansion of pre-existing Tregs, we transferred Treg-depleted OVA-specific CD4^+ T cells prior to vaccination with pOVA or pOVA-PEG20. […] The frequency of Foxp3^+ Tregs reached similar levels following pOVA and pOVA-PEG20 administration in both spleen and pLN, whereas pOVA-PEG20 increased the Treg frequency in mLN (trend) and the livLN (significant) compared to pOVA.
Figure 5 Administration of pOVA-PEG20 leads to de novo induction of Foxp3^+ Tregs. Treg-depleted CD4^+ T cells from DO11.10 mice were transferred into BALB/c mice 24 h prior to treatment with PBS (control), 5 µg of pOVA or equimolar amounts of pOVA-PEG20. Six days post peptide vaccination, spleen, pLN, mLN and livLN were isolated and Foxp3 expression was analyzed using flow cytometry. […]

OVA-TCR+ CD4+ T cells [5] = assay: Frequency of OVA-TCR+ CD4+ cells among total CD4+ splenocytes (deletion); format: in vivo, BALB/c mice; conditions: 5 µg i.v. or equimolar, day 6; compared to PBS (PEG20 also to pOVA); n = 5-11
Protocol: (§1) On day 0, 5 × 10^6 CFSE-labeled CD4^+ cells from DO11.10 were adoptively transferred intravenously (i.v.) into syngeneic BALB/c mice. After 24 hours, mice were treated by a single i.v. injection of PBS (control), unconjugated pOVA or equimolar amounts of PEG-conjugated pOVA as indicated. In some experiments, mice were also treated with unconjugated pOVA + 50 µg of lipopolysaccharide (LPS) or pOVA-PEG + 50 µg of LPS. On day 7, splenocytes were isolated, and OVA-TCR^+ CD4^+ T cells were identified by an anti-KJ1.26 antibody, recognizing the OVA-specific TCR on transferred DO11.10 cells.
Besides Treg expansion/induction and anergy, deletion of antigen-specific T effector cells by activation-induced cell death also dampens the immune response. […] Thus, vaccination with this conjugate is more efficient in triggering activation-induced death compared to native peptide or pOVA-PEG-tetramer vaccination where some death might outbalance induced proliferation.
Figure 8 Administration of pOVA-PEG20 reduces the frequency of OVA-TCR^+ CD4^+ T cells among total CD4^+ splenocytes. OVA-specific CD4^+ cells were transferred into BALB/c mice. After 24 h, mice received i.v. PBS (control), 5 µg of pOVA or equimolar amounts of pOVA-PEG conjugates. After 6 days, the frequency of OVA-TCR^+ CD4^+ cells among total CD4^+ T cells was assessed using flow cytometry. […]

OVA-specific Th1 cells = assay: Adoptive transfer of in vitro generated antigen-specific Th1 cells; format: in vivo; conditions: 5 µg i.v. or equimolar, 24 h after Th1 transfer, CFSE, n = 6
Protocol: CD4^+ T cells were isolated from DO11.10 mice via MACS-sorting as above and co-cultured 1:3 with APCs (CD4^- CD90^-) (final concentration: 2 x 10^6 cells/ml). Cells were incubated with 1 µg/ml of pOVA, IFN-γ (20 ng/ml) (R&D Systems, McKinley, USA), IL12 (5 ng/ml) (R&D), and anti-IL4-antibody (11B11, produced in house) (5 µg/ml). After 6 days, cells were harvested, and IFN-γ expression was assessed via flow cytometry.
5 × 10^6 purified polarized CFSE-labeled Th1 cells from DO11.10 mice were adoptively transferred i.v. into BALB/c mice. After 24 h, mice were treated by a single i.v. injection of PBS (control), unconjugated pOVA at a dose of 5 µg per mouse or equimolar amounts of PEGylated pOVA. On day 5, splenocytes were isolated, and OVA-specific Th1 cells were identified by an anti-KJ1.26 antibody.
To analyze these questions, in vitro generated OVA-specific Th1 effector cells ( Supplementary Figure 5 ) were transferred into BALB/c mice prior to peptide vaccination. Proliferation and expression of IFN-γ and Foxp3 were assessed on day 5.
Figure 9 pOVA-PEG20 vaccination in presence of pre-existing T effector cells. […] After four days, splenocytes were re-isolated and proliferation, IFN-γ and TNF production as well as Foxp3 expression was assessed using flow cytometry. […] (E, F) Absolute number of antigen-specific IFNγ or Foxp3^+ cells expressed as % of total CD4^+. […]

OVA-TCR+ CD4+ cells = assay: Adoptive transfer with additional LPS (inflammatory conditions); format: in vivo, BALB/c mice; conditions: 5 µg i.v. or equimolar + 50 µg LPS, 6 days
Protocol: as §1
To investigate the impact of inflammatory conditions, we analyzed the effect of lipopolysaccharide (LPS) application on the response of transferred unmanipulated OVA-TCR^+ CD4^+ cells.
24 h after adoptive transfer of OVA-specific CD4^+ T cells, recipients received i.v. PBS (control), 5 µg of pOVA or equimolar amounts of pOVA-PEG conjugates with or without additional LPS. After 6 days, splenocytes were isolated and Foxp3 expression as well as TNF production was assessed by flow cytometry. (A) % TNF^+ cells gated on OVA-specific CD4^+ cells, mean ± SD of data from three independent experiments. (B) % KJ1.26^+ (OVA-specific) splenocytes among total CD4^+ population; mean ± SD of pooled data from three independent experiments. […]

[6] = test system: Th1-driven DTH footpad swelling; assay: Delayed-type hypersensitivity (DTH) model, footpad swelling; format: in vivo, BALB/c mice; conditions: 5 µg i.v. or equimolar; Th1 transfer day 7; footpad challenge pOVA/IFA; 8 days; n = 15
Protocol: pOVA-specific CD4^+ cells were adoptively transferred into BALB/c mice, which were treated i.v. with PBS (control), 5 μg of pOVA or equimolar amounts of pOVA-PEG20 24 h later (tolerization). To induce the effector phase, in vitro generated pOVA-specific Th1 cells were transferred into the recipients on day 7. After 24 h, pOVA in IFA or PBS/IFA were injected into the left or right hind footpad, respectively. Footpad swelling was monitored for 8 consecutive days and expressed as Δ footpad thickness.
To investigate whether pOVA-PEG20 is able to prevent the development of an inflammatory reaction in vivo, we used a DTH model based on the transfer of pre-formed Th1 cells, intra-footpad challenge with pOVA and measurement of footpad swelling for 8 days. […] As discussed below, a clearer superiority of PEGylated peptide over native peptide in tolerance induction was found in a more physiological EAE-model studied in parallel ([35]).
OVA-specific CD4^+ cells were adoptively transferred into BALB/c mice, which were treated i.v. with PBS (control), 5 μg of pOVA or equimolar amounts of pOVA-PEG20 24 h later. On day 7, in vitro generated OVA-specific Th1 cells were transferred into the recipients. […] The difference in footpad thickness after challenge was monitored for eight consecutive days. […]

Sequence: ISQAVHAAHAEINEAGR [pOVA]
- T cell proliferation when vaccinated 3 days prior to T cell transfer (bioavailability) (OVA-TCR+ CD4+ T cells [1]): Little T cell proliferation
- Foxp3+ among OVA-TCR+ CD4+ splenocytes, representative FACS dot plot (Fig. 4A gate number) ([2]; 5 µg i.v. (based on peptide amount), 6 days after treatment, single representative plot): 24.7%
- Frequency of splenic OVA-specific Foxp3+ regulatory T cells (in words) ([2]; 5 µg i.v. or equimolar, pOVA, PEG40, tetramer compared to PBS, PEG20 compared to pOVA): significant increase
- Mean ratio % TNF+/% Foxp3+ cells (effector cell/Treg ratio) ([3]; 5 µg i.v. or equimolar, 6 days, spleen, gated on OVA-TCR+ CD4+ cells, n = 5-8): 2.23
- IL-10 staining of OVA-specific cells after restimulation, representative plot gate number (Suppl. Fig. 3) ([3]; 5 µg in vivo (based on peptide amount), day 7, lower pair of plots): 0.58
- De novo induction of Foxp3+ Tregs from Treg-depleted CD4+ cells [4]: able to induce Foxp3^+ Tregs in all organs analyzed
- Frequency of OVA-specific (OVA-TCR+ CD4+) cells among host CD4+ splenocytes (OVA-TCR+ CD4+ T cells [5]): not reducing
- Proliferative response of transferred Th1 cells (OVA-specific Th1 cells): moderate proliferative response
- Increase in Foxp3+ cells upon vaccination in presence of LPS (OVA-TCR+ CD4+ cells): completely suppressed
- Tolerance in Th1-driven DTH model (Δ footpad thickness) [6]: partial tolerance
